Assay results: ChEMBL document CHEMBL1201862, “PubChem BioAssay data set” (2004)
Active and inactive are the calls of the source.

Columns and labels:
[1] = target: Heat shock protein HSP 90-alpha (Homo sapiens, UniProt P07900); assay type: functional, organism-based
[2] = Luminescence Cell-Based Dose Retest to Confirm Inhibitors of Cancer Stem Cells. [Related pubchem assays (depositor defined):AID2717, AID2721]; assay type: functional; settings: Homo sapiens
[3] = A Cell Based Secondary Assay To Explore Cytotoxicity of Compounds that Sensitize Mycobacterium Tuberculosis to Beta-Lactam Antibiotics.; assay type: functional
[4] = inhibitors of intracellular T. cruzi replication, confirmation, NIH3T3 host cells, beta-gal luminescence (AID 2044); assay type: functional, cell-based;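 also: intracellular parasites grown in NIH/3T3 mouse fibroblasts as host cells; luminescent beta-galactosidase reporter signal from transgenic T. cruzi replicating inside host cells; inhibitors lower the luminescence signal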
[5] = target: T1, Calpain-2 catalytic subunit (Sus scrofa, UniProt P43367); assay: pig calpain II inhibitor potency, dose response, biochemical, fluorogenic peptide substrate (AID 1420); assay type: functional
T1 sequence (P43367 whole entry): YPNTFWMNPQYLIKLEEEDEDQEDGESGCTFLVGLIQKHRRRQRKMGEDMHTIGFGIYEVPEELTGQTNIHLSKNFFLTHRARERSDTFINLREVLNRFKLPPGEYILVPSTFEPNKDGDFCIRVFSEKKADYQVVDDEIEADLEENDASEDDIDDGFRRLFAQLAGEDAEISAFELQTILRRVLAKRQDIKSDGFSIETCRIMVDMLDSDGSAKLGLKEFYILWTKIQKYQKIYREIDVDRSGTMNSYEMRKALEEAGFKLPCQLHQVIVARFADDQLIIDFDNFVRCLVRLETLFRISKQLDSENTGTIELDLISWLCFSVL

[6] = cytotoxicity toward NIH3T3 fibroblasts, dose response, counter-screen, cell-based, ATP luminescence, mouse fibroblasts (AID 2010); assay type: functional;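 also: cells exposed to compound for about 90 hours before reading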
[7] = inhibitors of Vif binding to APOBEC3G peptide, primary screen, biochemical, TR-FRET, GST-Vif 1-94, biotin-A3G peptide, dose response retest (AID 1117319); assay type: functional;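 also: TR-FRET signal of purified GST-Vif binding a biotinylated A3G peptide; inhibitors lower the FRET signal by blocking Vif and A3G binding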
Large T antigen = Large T antigen (Simian virus 40, UniProt P03070); assay type: functional, Betapolyomavirus macacae;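 also: Confirmatory-stage PubChem screen for compounds that inhibit SV40 T antigen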
HeLa = assay: HeLa cell cytotoxicity, dose response, cytotoxicity control, 24 h, cherry-picked samples (AID 504726); assay type: functional, cell-based; settings: Homo sapiens;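 also: potency for cytotoxicity as loss of luminescence signal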
Cytochrome P450 2C19 = Cytochrome P450 2C19 (Homo sapiens, UniProt P33261); assay: Cytochrome panel assay with activity outcomes. Panel member name: p450-cyp2c19 Compounds with AC50 equal or less than 10 uM are considered active; assay type: functional; settings: read-out: AC50
Cytochrome P450 2D6 = Cytochrome P450 2D6 (Homo sapiens, UniProt P10635);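 also: CYP2D6 member of a cytochrome P450 panel assay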
[8] = P. falciparum late gametocyte killing, dose response, luminescence (AID 1117278); assay type: functional, cell-based;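 also: gametocytes exposed to compound for 24 hours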
[9] = Jurkat T cell cytotoxicity, dose response, cytotoxicity control for P. falciparum gametocyte viability project, luminescence (AID 1117277); assay type: functional, cell-based;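 also: potency reflects loss of cellular ATP meaning fewer viable cells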
Aminopeptidase N = target: T2, Aminopeptidase N (Plasmodium falciparum FcB1/Columbia, UniProt O96935); assay: P. falciparum M1AAP inhibitors, biochemical, fluorogenic H-Leu-NHMec substrate, 1536-well (AID 1445); design: species or system Plasmodium falciparum 3D7, 3D7
T2 sequence (O96935 whole entry): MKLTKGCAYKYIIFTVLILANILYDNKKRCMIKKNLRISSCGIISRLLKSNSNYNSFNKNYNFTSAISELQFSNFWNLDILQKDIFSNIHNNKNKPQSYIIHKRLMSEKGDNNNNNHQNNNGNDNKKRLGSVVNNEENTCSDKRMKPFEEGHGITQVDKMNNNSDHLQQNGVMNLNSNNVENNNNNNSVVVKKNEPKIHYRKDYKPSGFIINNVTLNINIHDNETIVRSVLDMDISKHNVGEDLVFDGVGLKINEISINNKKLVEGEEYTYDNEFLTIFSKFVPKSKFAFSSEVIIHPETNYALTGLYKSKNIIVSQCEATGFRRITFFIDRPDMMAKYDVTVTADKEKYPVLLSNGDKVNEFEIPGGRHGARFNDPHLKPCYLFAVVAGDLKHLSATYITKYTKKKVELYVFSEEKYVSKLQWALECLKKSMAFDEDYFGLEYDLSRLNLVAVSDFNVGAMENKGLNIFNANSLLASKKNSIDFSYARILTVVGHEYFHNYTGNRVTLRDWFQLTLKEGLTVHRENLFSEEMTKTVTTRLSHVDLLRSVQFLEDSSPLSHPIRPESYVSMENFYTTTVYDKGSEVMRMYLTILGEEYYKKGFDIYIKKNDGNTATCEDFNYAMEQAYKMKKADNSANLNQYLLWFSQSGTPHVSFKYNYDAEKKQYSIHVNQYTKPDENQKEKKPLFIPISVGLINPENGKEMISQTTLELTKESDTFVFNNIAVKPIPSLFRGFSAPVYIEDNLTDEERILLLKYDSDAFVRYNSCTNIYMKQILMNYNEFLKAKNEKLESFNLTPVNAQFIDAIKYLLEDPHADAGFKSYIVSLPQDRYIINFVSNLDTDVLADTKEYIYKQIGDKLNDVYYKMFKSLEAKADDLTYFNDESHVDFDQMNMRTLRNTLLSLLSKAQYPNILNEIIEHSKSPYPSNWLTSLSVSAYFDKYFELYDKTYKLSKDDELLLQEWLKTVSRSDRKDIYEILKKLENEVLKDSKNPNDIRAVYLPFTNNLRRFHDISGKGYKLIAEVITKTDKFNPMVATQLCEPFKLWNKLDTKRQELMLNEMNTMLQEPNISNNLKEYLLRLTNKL

[10] = target: T3, Rac GTPase-activating protein 1 (Homo sapiens, UniProt Q9H0H5); assay: MgcRacGAP GTPase-activating activity inhibitors, confirmation, biochemical, ADP Hunter fluorescence, primary and confirmatory (AID 624330); assay type: functional
T3 sequence (Q9H0H5 whole entry): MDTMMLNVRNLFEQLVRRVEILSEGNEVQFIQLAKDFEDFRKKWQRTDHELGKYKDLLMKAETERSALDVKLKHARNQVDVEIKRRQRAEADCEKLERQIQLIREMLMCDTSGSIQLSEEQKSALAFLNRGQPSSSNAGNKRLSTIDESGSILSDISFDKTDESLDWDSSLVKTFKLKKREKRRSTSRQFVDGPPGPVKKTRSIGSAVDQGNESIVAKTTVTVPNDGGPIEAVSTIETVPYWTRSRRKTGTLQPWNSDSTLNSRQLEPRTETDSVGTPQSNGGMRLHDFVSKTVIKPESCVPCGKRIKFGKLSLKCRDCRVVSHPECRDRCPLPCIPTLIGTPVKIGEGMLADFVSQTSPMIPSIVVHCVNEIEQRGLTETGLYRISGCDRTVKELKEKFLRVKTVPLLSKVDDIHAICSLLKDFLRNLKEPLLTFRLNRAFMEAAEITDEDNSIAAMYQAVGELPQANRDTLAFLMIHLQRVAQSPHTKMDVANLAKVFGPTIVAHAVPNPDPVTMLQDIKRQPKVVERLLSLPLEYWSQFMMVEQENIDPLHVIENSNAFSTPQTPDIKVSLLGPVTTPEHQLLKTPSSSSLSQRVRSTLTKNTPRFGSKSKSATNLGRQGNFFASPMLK

[11] = HeLa cell cytotoxicity, dose response, cytotoxicity control for MgcRacGAP inhibitor project (AID 624300); assay type: functional
[12] = P. falciparum Dd2 growth inhibitors, dose response, SYBR Green, dry powder samples (AID 1159566); assay type: functional, cell-based;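 also: potency for growth inhibition with lower SYBR green DNA signal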
[13] = P. falciparum 3D7-ScDHODH growth inhibitors, dose response, SYBR Green, dry powder samples (AID 1159570); assay type: functional, cell-based;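 also: parasite growth measured after 72 hours of compound exposure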
[14] = P. falciparum Dd2 growth inhibitors, dose response, SYBR Green, cherry-picked samples (AID 1159567); assay type: functional, cell-based
[15] = P. falciparum ATP4 D1247Y mutant growth inhibitors, dose response, NITD609-resistant line, SYBR Green, dry powder (AID 1159571); assay type: functional, cell-based;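 also: parasites synchronized at ring stage by sorbitol before testing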
[16] = A549 cell cytotoxicity, dose response, cytotoxicity control, plate reader, cherry-pick, antagonist series (AID 743412); assay type: functional, cell-based
[17] = HepG2 cell cytotoxicity, dose response, cytotoxicity control, plate reader, cherry-pick, antagonist series (AID 743416); assay type: functional, cell-based
[18] = HEK293 cell cytotoxicity, dose response, cytotoxicity control, plate reader, cherry-picked samples (AID 743446); assay type: functional, cell-based
[19] = LGR2 antagonists, dose response, cell-based, HEK293, CRE-luciferase reporter, cherry pick, set 2 (AID 743343); assay type: functional;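 also: transfected cells were stimulated with diluted bursicon conditioned medium after compound addition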
[20] = MC4R antagonists, dose response, counter-screen for LGR2 antagonist project, cell-based, plate reader, cherry pick (AID 743444); assay type: functional;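 also: transfected HEK 293 cells stimulated with alpha-MSH peptide; potency of inhibitors of the alpha-MSH evoked signal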

Large T antigen, sequence (P03070 whole entry): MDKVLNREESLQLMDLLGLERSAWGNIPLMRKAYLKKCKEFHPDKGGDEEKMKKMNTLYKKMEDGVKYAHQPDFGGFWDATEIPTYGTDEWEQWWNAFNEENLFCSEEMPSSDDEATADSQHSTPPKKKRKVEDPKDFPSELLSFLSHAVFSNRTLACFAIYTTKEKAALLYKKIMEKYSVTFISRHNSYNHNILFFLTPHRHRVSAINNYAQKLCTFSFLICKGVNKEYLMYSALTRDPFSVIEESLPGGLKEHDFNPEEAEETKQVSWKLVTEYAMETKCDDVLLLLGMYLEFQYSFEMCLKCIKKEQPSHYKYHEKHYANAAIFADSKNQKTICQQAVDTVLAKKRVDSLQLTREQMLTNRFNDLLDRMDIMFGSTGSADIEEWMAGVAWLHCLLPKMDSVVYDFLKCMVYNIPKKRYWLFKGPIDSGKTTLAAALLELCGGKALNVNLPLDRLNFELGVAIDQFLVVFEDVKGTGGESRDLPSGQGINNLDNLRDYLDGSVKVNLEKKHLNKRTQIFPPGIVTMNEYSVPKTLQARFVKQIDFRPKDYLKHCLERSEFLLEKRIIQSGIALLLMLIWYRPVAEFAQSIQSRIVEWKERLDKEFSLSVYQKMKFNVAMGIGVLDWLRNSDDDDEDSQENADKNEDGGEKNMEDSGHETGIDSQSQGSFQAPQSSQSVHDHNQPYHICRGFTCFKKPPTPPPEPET
Cytochrome P450 2D6, sequence (P10635 whole entry): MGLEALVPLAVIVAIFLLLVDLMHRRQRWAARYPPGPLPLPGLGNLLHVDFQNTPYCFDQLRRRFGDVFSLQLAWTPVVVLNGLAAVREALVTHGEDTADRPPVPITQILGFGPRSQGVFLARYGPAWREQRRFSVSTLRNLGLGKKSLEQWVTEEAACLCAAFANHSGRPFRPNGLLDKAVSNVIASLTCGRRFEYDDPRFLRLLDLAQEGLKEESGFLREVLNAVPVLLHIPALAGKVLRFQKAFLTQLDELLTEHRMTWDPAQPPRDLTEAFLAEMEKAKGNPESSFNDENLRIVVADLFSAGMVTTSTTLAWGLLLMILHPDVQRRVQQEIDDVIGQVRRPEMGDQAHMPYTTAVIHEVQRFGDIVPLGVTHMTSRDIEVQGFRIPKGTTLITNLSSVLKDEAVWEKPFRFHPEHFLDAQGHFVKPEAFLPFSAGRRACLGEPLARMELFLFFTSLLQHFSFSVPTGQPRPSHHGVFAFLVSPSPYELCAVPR
Cytochrome P450 2C19, sequence (P33261 whole entry): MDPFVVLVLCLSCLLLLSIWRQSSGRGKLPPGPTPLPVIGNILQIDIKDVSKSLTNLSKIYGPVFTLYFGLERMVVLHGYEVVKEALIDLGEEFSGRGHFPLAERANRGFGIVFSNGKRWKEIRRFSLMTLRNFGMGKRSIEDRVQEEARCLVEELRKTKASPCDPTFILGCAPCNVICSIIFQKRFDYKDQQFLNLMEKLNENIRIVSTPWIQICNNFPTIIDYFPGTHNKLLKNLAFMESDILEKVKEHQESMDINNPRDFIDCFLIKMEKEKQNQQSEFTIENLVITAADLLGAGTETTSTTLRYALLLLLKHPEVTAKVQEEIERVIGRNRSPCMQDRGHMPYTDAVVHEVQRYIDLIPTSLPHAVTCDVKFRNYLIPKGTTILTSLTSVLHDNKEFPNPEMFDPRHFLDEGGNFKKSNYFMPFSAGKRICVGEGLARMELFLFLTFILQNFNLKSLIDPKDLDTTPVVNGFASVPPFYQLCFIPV

## Cc1cc2ccccn2c1C(=O)c1ccc([N+](=O)[O-])o1
[1]
  AC50: 3.38 µM (active)
[2]
  AC50: 2.84 µM (active)
[3]
  CC50: 8.69 µM (active)

## CCS(=O)(=O)NCC(c1cccnc1)N1CCN(c2ccc(OC)cc2)CC1 (configuration not stated)
[4]
  EC50: 0.916 µM (active)
[5]
  IC50: 24.7 µM (not active)
[6]
  EC50: 22 µM (active)

## CC(=O)Nc1nonc1-c1nc2ccccc2n1CCC(C)C
[3]
  CC50: > 40 µM (active)

## CCn1c(SCC(=O)n2c(C)c(C)c3ccccc32)nnc1-c1ccco1
[7]
  IC50: > 100 µM (active)

## O=C1NC(=O)N(Cc2ccc(F)cc2)C(=O)/C1=C\c1ccoc1
Large T antigen
  IC50: 56.4 µM (active)

## CC1=[N+](C)N(c2ccccc2)C(=O)C1/N=C/C=C/c1ccccc1 (configuration not stated)
HeLa
  AC50: 308 µM (active)

## O=C(/C=C/c1ccc2c(c1)OCO2)Nc1nc2ccccc2s1
[3]
  CC50: > 40 µM (active)

## Cc1[nH]c2c(C)cccc2c1CCNC(=O)c1ccc2c(c1[N+](=O)[O-])C(=O)c1ccccc1C2=O
Cytochrome P450 2C19
  AC50: 0.398 µM (inconclusive)
Cytochrome P450 2D6
  AC50: 2 µM (inconclusive)
[3]
  CC50: 17.2 µM (active)

## Cc1cc(C(=O)NCc2cccnc2)no1
[8]
  IC50: > 109 µM (inactive)
[9]
  IC50: > 83.3 µM (inactive)

## COc1cc(/C=N/N2C(=O)CSC2=S)cc(Br)c1O
Large T antigen
  IC50: 12.8 µM (active)
Aminopeptidase N
  IC50: 107 µM (active)

## Cc1ccc(CN2CCN(Cc3ccccc3C(F)(F)F)CC2)cc1
[10]
  IC50: 40.4 µM (active)
[11]
  CC50: 100 µM (active)

## Oc1nc(-c2ccccc2Cl)nc2c1sc(=S)n2-c1ccccc1
[5]
  IC50: 41.7 µM (not active)

## Nc1ccc(Cn2ccc3c4c(N)nc(N)nc4ccc32)cc1
[10]
  IC50: 77 µM (active)
[11]
  CC50: 49.5 µM (active)

## COC(=O)C1=C(c2ccc(OC(F)(F)F)cc2)C[C@@H]2CC[C@H]1N2C(=O)NC1CCCCC1
HeLa
  AC50: > 350 µM (inactive)

## CCc1nc(C)ccc1OC(=O)C12CC3CC(CC(C3)C1)C2
[5]
  IC50: 8.73 µM (not active)

## COc1ccc(CN2CCN(Cc3ccccc3)CC2)c(OC)c1
[8]
  IC50: > 109 µM (inactive)
[9]
  IC50: > 83.3 µM (inactive)

## Cc1cc(Cl)cc(C)c1OCCOCCNCc1ccccc1
[10]
  IC50: 128 µM (active)
[11]
  CC50: 100 µM (active)

## CCC(CC)C(=O)Nc1ccc(S(=O)(=O)Nc2nccs2)cc1
[5]
  IC50: 11.7 µM (not active)

## N#C/C(=C\c1ccc(-c2ccccc2[N+](=O)[O-])o1)C(N)=O
HeLa
  AC50: 83.5 µM (active)

## COc1ccc(OC)c(/C(O)=C/C(=O)C(=O)Nc2ccccc2OC)c1
[7]
  IC50: > 100 µM (active)

## C[C@@H]1CN([C@H](C)CO)C(=O)c2cc(/C=C/c3ccccc3)cnc2O[C@H]1CN(C)C(=O)NC1CCCCC1
[12]
  AC50: 1.06 µM (active)
[13]
  AC50: 2.03 µM (active)
[14]
  AC50: 2.73 µM (active)
[15]
  AC50: 1.76 µM (active)

## CCOc1cccc(SCc2noc(C(=O)NCC3CCCO3)c2C(=O)O)c1 (configuration not stated)
[7]
  IC50: > 100 µM (active)

## C1CCN(CCCNC2C3CC4CC(C3)CC2C4)C1 (configuration not stated)
[8]
  IC50: > 109 µM (inactive)
[9]
  IC50: > 83.3 µM (inactive)

## COc1cc(-c2nc3cnccn3c2Nc2ccccc2)ccc1O
Large T antigen
  IC50: 5.05 µM (active)

## Cc1ccc(N=Nc2ccc(N)cc2C)c(S(N)(=O)=O)c1
[7]
  IC50: > 100 µM (active)

## CCCCN(CC)CCNC(=O)CN(C)S(=O)(=O)c1ccc2c(c1)c(=O)n(C)c(=O)n2C
[8]
  IC50: > 109 µM (inactive)
[9]
  IC50: > 83.3 µM (inactive)

## COc1ccc(C(=O)Nc2nc3ccccc3[nH]2)cc1
[16]
  AC50: 34.6 µM (active)
[17]
  AC50: > 52 µM (inactive)
[18]
  AC50: > 52 µM (inactive)
[19]
  AC50: 2.45 µM (active)
[20]
  AC50: 2.84 µM (active)

## CN(Cc1nc(-c2cnccn2)no1)Cc1[nH]nc2c1CCCC2
[5]
  IC50: 7.73 µM (not active)

## CN(C)S(=O)(=O)N(CC(=O)Nc1ccccc1)c1ccccc1
[8]
  IC50: > 109 µM (inactive)
[9]
  IC50: > 83.3 µM (inactive)

## O=C(CCN1CCOCC1)c1ccc(N2CCCCC2)cc1
[3]
  CC50: 29.2 µM (active)
